# According to patent US11066443B2 (Hoffmann-La Roche Inc., priority 2017, dated 2021):
# Test system: P. aeruginosa NCTC11454
# Assay: Antimicrobial susceptibility testing: 50% growth inhibitory concentration (IC50) determination
# Assay type: cell-based
# Conditions: Pseudomonas aeruginosa, Iso-Sensitest broth, OD 600 nm every 20 minutes over 16h, growth inhibition during logarithmic growth
# Procedure: The in vitro antimicrobial activity of the compounds was alternatively determined according to the following procedure: The assay used a 10-points Iso-Sensitest broth medium to measure quantitatively the in vitro activity of the compounds against P. aeruginosa NCTC11454. Stock compounds in DMSO were serially twofold diluted (e.g. range from 50 to 0.097 μM final concentration) in 384 wells microtiter plates and inoculated with 49 μl the bacterial suspension in Iso-Sensitest medium to have a final cell concentration of ˜5×10^(5) CFU/ml in a final volume/well of 50 ul/well. Microtiter plates were incubated at 35±2° C. Bacterial cell growth was determined with the measurement of optical density at λ=600 nm each 20 minutes over a time course of 16h. Growth inhibition was calculated during the logarithmic growth of the bacterial cells with determination of the concentration inhibiting 50% (IC50) and 90% (IC90) of the growth. Table 2 provides the 50% growth inhibitory concentrations (IC50) in micromoles per liter of the compounds of present invention obtained against P. aeruginosa NCTC11454.
row,IC50 [µM],SMILES
1,32,"CN1C(=O)[C@H](CCCCN)NC(=O)[C@H](CCCN)NCc2ccccc2Sc2ccc(Cl)cc2CNC(=O)[C@@H]1Cc1c[nH]c2ccccc12 [Example 1, (12S,15S,18S)-15-(4-Amino-butyl)-18-(3-amino-propyl)-6-chloro-12-(1H-indol-3-ylmethyl)-13-methyl-2-thia-10,13,16,19-tetraaza-tricyclo[19.4.0.0*3,8*]pentacosa-1(21),3,5,7,22,24-hexaene-11,14,17-trione]"
2,12.6,"CN1C(=O)[C@H](CCCCN)NC(=O)[C@H](CCCN)NCc2ccccc2Sc2cc(C(F)(F)F)ccc2CNC(=O)[C@@H]1Cc1c[nH]c2ccccc12 [Example 4, (12S,15S,18S)-15-(4-Amino-butyl)-18-(3-amino-propyl)-12-(1H-indol-3-ylmethyl)-13-methyl-5-trifluoromethyl-2-thia-10,13,16,19-tetraaza-tricyclo[19.4.0.0*3,8*]pentacosa-1(21),3,5,7,22,24-hexaene-11,14,17-trione]"
3,24.4,"CN1C(=O)[C@H](CCCCN)NC(=O)[C@H](CCCN)NCc2ccccc2Sc2ccccc2CNC(=O)[C@@H]1Cc1c[nH]c2cc(Cl)ccc12 [Example 5, (12S,15S,18S)-15-(4-Amino-butyl)-18-(3-amino-propyl)-12-(6-chloro-1H-indol-3-ylmethyl)-13-methyl-2-thia-10,13,16,19-tetraaza-tricyclo[19.4.0.0*3,8*]pentacosa-1(21),3,5,7,22,24-hexaene-11,14,17-trione]"
4,22.7,"CN1C(=O)[C@H](CCCCN)NC(=O)[C@H](CCCN)NCc2ccccc2Sc2ccc(Cl)cc2CNC(=O)[C@@H]1Cc1cn(C)c2ccccc12 [Example 6, (12S,15S,18S)-15-(4-Amino-butyl)-18-(3-amino-propyl)-6-chloro-13-methyl-12-(1-methyl-1H-indol-3-ylmethyl)-2-thia-10,13,16,19-tetraaza-tricyclo[19.4.0.0*3,8*]pentacosa-1(21),3,5,7,22,24-hexaene-11,14,17-trione]"
5,7.62,"CN1C(=O)[C@H](CCCCN)NC(=O)[C@H](CCCN)NCc2ccccc2Sc2ccc(Cl)cc2CNC(=O)[C@@H]1Cc1c[nH]c2cc(Cl)ccc12 [Example 7, (12S,15S,18S)-15-(4-Amino-butyl)-18-(3-amino-propyl)-6-chloro-12-(6-chloro-1H-indol-3-ylmethyl)-13-methyl-2-thia-10,13,16,19-tetraaza-tricyclo[19.4.0.0*3,8*]pentacosa-1(21),3,5,7,22,24-hexaene-11,14,17-trione]"
6,13.2,"CN1C(=O)[C@H](CCCCN)NC(=O)[C@H](CCCN)NCc2ccccc2Sc2ccc(Cl)cc2CNC(=O)[C@@H]1Cc1cn(C)c2cc(Cl)ccc12 [Example 8, (12S,15S,18S)-15-(4-Amino-butyl)-18-(3-amino-propyl)-6-chloro-12-(6-chloro-1-methyl-1H-indol-3-ylmethyl)-13-methyl-2-thia-10,13,16,19-tetraaza-tricyclo[19.4.0.0*3,8*]pentacosa-1(21),3,5,7,22,24-hexaene-11,14,17-trione]"
7,24.5,"CN1C(=O)[C@H](CCCCN)NC(=O)[C@H](CCCN)NCc2ccccc2Sc2ccc(Cl)c(Cl)c2CNC(=O)[C@@H]1Cc1c[nH]c2ccccc12 [Example 9, (12S,15S,18S)-15-(4-Amino-butyl)-18-(3-amino-propyl)-6,7-dichloro-12-(1H-indol-3-ylmethyl)-13-methyl-2-thia-10,13,16,19-tetraaza-tricyclo[19.4.0.0*3,8*]pentacosa-1(25),3,5,7,21,23-hexaene-11,14,17-trione]"
8,10.7,"CN1C(=O)[C@H](CCCCN)NC(=O)[C@H](CCCN)NCc2ccccc2Sc2c(Cl)ccc(C(F)(F)F)c2CNC(=O)[C@@H]1Cc1c[nH]c2ccccc12 [Example 10, (12S,15S,18S)-15-(4-Amino-butyl)-18-(3-amino-propyl)-4-chloro-12-(1H-indol-3-ylmethyl)-13-methyl-7-trifluoromethyl-2-thia-10,13,16,19-tetraaza-tricyclo[19.4.0.0*3,8*]pentacosa-1(25),3,5,7,21,23-hexaene-11,14,17-trione]"
9,24.3,"Cc1cc(Cl)cc2c1Sc1ccccc1CN[C@@H](CCCN)C(=O)N[C@@H](CCCCN)C(=O)N(C)[C@@H](Cc1c[nH]c3ccccc13)C(=O)NC2 [Example 14, (12S,15S,18S)-15-(4-Amino-butyl)-18-(3-amino-propyl)-6-chloro-12-(1H-indol-3-ylmethyl)-4,13-dimethyl-2-thia-10,13,16,19-tetraaza-tricyclo[19.4.0.0*3,8*]pentacosa-1(25),3,5,7,21,23-hexaene-11,14,17-trione]"
10,10.1,"CN1C(=O)[C@H](CCCCN)NC(=O)[C@H](CCCN)NCc2cccnc2Sc2c(cc(-c3ccccc3)cc2C(F)(F)F)CNC(=O)[C@@H]1Cc1c[nH]c2ccccc12 [Example 22, (11S,14S,17S)-14-(4-Amino-butyl)-11-(3-amino-propyl)-17-(1H-indol-3-ylmethyl)-16-methyl-23-phenyl-25-trifluoromethyl-2-thia-4,10,13,16,19-pentaaza-tricyclo[19.4.0.0*3,8*]pentacosa-1(25),3,5,7,21,23-hexaene-12,15,18-trione]"
11,22.4,"CN1C(=O)[C@H](CCCCN)NC(=O)[C@H](CCCN)NCc2ncccc2Sc2c(Cl)cc(C(F)(F)F)cc2CNC(=O)[C@@H]1Cc1c[nH]c2ccccc12 [Example 24, (11S,14S,17S)-14-(4-Amino-butyl)-11-(3-amino-propyl)-25-chloro-17-(1H-indol-3-ylmethyl)-16-methyl-23-trifluoromethyl-2-thia-7,10,13,16,19-pentaaza-tricyclo[19.4.0.0*3,8*]pentacosa-1(25),3,5,7,21,23-hexaene-12,15,18-trione]"
12,25.3,"NCCCC[C@@H]1NC(=O)[C@@H](CCCN)NCc2cccnc2Sc2c(ccc(-c3ccccc3)c2Cl)CNC(=O)[C@H](Cc2c[nH]c3ccccc23)NC1=O [Example 25, (11R,14S,17S)-14-(4-Amino-butyl)-11-(3-amino-propyl)-25-chloro-17-(1H-indol-3-ylmethyl)-24-phenyl-2-thia-4,10,13,16,19-pentaaza-tricyclo[9.4.0.0*3,8*]pentacosa-1(25),3,5,7,21,23-hexaene-12,15,18-trione]"
13,23.7,"NCCCC[C@@H]1NC(=O)[C@H](CCCN)NCc2cccnc2Sc2c(ccc(-c3ccccc3)c2Cl)CNC(=O)[C@H](Cc2c[nH]c3ccccc23)NC1=O [Example 26, (11S,14S,17S)-14-(4-Amino-butyl)-11-(3-amino-propyl)-25-chloro-17-(1H-indol-3-ylmethyl)-24-phenyl-2-thia-4,10,13,16,19-pentaaza-tricyclo[9.4.0.0*3,8*]pentacosa-1(25),3,5,7,21,23-hexaene-12,15,18-trione]"
14,11.3,"CN1C(=O)[C@H](CCCCN)NC(=O)[C@@H](CCCN)NCc2cccnc2Sc2c(ccc(-c3ccccc3)c2Cl)CNC(=O)[C@@H]1Cc1c[nH]c2ccccc12 [Example 27, (11R,14S,17S)-14-(4-Amino-butyl)-11-(3-amino-propyl)-25-chloro-17-(1H-indol-3-ylmethyl)-16-methyl-24-phenyl-2-thia-4,10,13,16,19-pentaaza-tricyclo[19.4.0.0*3,8*]pentacosa-1(25),3,5,7,21,23-hexaene-12,15,18-trione]"
15,11.1,"CN1C(=O)[C@H](CCCN)NC(=O)[C@H](CCCN)NCc2ccccc2Sc2c(Cl)cc(Cl)cc2CNC(=O)[C@@H]1Cc1c[nH]c2ccccc12 [Example 30, (12S,15S,18S)-15,18-Bis-(3-amino-propyl)-4,6-dichloro-12-(1H-indol-3-ylmethyl)-13-methyl-2-thia-10,13,16,19-tetraaza-tricyclo[19.4.0.0*3,8*]pentacosa-1(25),3,5,7,21,23-hexaene-11,14,17-trione]"
16,25.4,"CN1C(=O)[C@H](CCCCN)NC(=O)[C@H](CCCN)NCc2cccnc2Sc2c(Cl)ccc(C(F)(F)F)c2CNC(=O)[C@@H]1Cc1c[nH]c2ccc(Cl)cc12 [Example 31, (11S,14S,17S)-14-(4-Amino-butyl)-11-(3-amino-propyl)-25-chloro-17-(5-chloro-1H-indol-3-ylmethyl)-16-methyl-22-trifluoromethyl-2-thia-4,10,13,16,19-pentaaza-tricyclo[19.4.0.0*3,8*]pentacosa-1(25),3,5,7,21,23-hexaene-12,15,18-trione]"
17,7.15,"CN1C(=O)[C@H](CCCCN)NC(=O)[C@H](CCCN)NCc2ccccc2Sc2c(Cl)cc(-c3ccccc3)cc2CNC(=O)[C@@H]1Cc1c[nH]c2ccccc12 [Example 32, (12S,15S,18S)-15-(4-Amino-butyl)-18-(3-amino-propyl)-4-chloro-12-(1H-indol-3-ylmethyl)-13-methyl-6-phenyl-2-thia-111,13,16,19-tetraaza-tricyclo[19.4.0.0*3,8*]pentacosa-1(25),3,5,7,21,23-hexaene-11,14,17-trione]"
18,9.02,"CN1C(=O)[C@H](CCCCN)NC(=O)[C@H](CCCN)NCc2ccccc2Sc2c(Cl)cc(-c3ccccc3Cl)cc2CNC(=O)[C@@H]1Cc1c[nH]c2ccccc12 [Example 33, (12S,15S,18S)-15-(4-Amino-butyl)-18-(3-amino-propyl)-4-chloro-6-(2-chloro-phenyl)-12-(1H-indol-3-ylmethyl)-13-methyl-2-thia-10,13,16,19-tetraaza-tricyclo[19.4.0.0*3,8*]pentacosa-1(25),3,5,7,21,23-hexaene-11,14,17-trione]"
